Experimental data from US8796320B2, “1,3,4-Oxadiazole-2-carboxamide compound” (General Incorporated Association Pharma Valley Project …, priority 2009, dated 2014).

Key:
[1] = test system: human lymphoma SCC-3 cells; assay: Evaluation using human lymphoma-transplanted nude mice; format: in vivo, nude mouse; details: 80 mg/kg orally once a day for 5 days, p < 0.05
Experimental: 1×10^6 human lymphoma SCC-3 cells (containing Matrigel) were subcutaneously transplanted to the flank part of each 6-week-old male nude mouse (BALB/cA-nu/nu, CLEA Japan, Inc.). After the transplantation, the tumor volumes [major axis (mm) and minor axis (mm)] of the SCC-3 cancer-bearing mice were measured using an electronic vernier caliper (CD-10, Mitutoyo Corp.), and tumor volumes [mm^3: (major axis)×(minor axis)^2/2] were calculated. SCC-3 cancer-bearing mice whose tumor volume reached 50 to 300 mm^3 were selected and divided based on the tumor volumes into groups each containing 5 individuals. A test compound was suspended in a 0.5% methylcellulose solution and orally administered at a dose of 0.01 mL/g body weight once a day for 5 days (Day 0 (administration initiation day) to Day 4). To a control group, none was administered. The tumor volumes of the SCC-3 cancer-bearing mice were measured every day from the initiation of test compound administration to evaluate antitumor effect. The antitumor effect was assessed by calculating T/C (%) values according to the following formula: • V: tumor volume on every assay day • V0: tumor volume on the administration initiation day (V/V0 of the test compound group)/(V/V0 of the control group)×100
Validity determination criteria for this system adopted the method of Inaba, et al. (Cancer, 1989, 64, 1577-1582).

STAT3 = STAT3 transcription inhibition test (reporter gene method); format: cell-based; details: Homo sapiens; compound at 100 μM; STAT3 reporter HeLa stable cell line, oncostatin M 10 ng/mL, 4 hours; read-out: STAT3 transcription inhibitory activity (%)
Experimental: The inhibition of STAT3 transcription was evaluated by using STAT3 reporter HeLa stable cell line (Panomics Inc., catalog No. RC0003), a cell line for the reporter gene method, and performing the following method according to the appendix included therein.
STAT3, reporter HeLa stable cell line subcultured and maintained in a Dulbecco's modified Eagle's medium (DMEM) containing 10% fetal bovine serum, 100 units/mL penicillin, and 100 μg/mL streptomycin was inoculated at a concentration of 40000 cells/well to a 96-well plate (white) and attached to the plate by overnight incubation at 37° C. under 5% CO2. After addition of each evaluation compound adjusted to various concentrations (adjusted with a DMSO solution), the cells were precultured for 1 hour. Then, oncostatin M for activating STAT3 was added at a final concentration 10 ng/mL, and the cells were further cultured at 37° C. under 5% CO2 for 4 hours. Luciferase activity derived from the cells was determined using Steady-Glo Luciferase Assay System (Promega Corp.), and STAT3 transcriptional activity scores were calculated according to the following formula: STAT3 transcriptional activity score (%)=100×(Lchem−L0)/(LDMSO−L0) • L0: luminescence intensity obtained without stimulation with oncostatin M • Lchem: luminescence intensity obtained by the addition of a test sample • LDMSO: luminescence intensity obtained by the addition of only a solvent for dissolving a test sample
The test results were indicated in the rate of inhibition of STAT3 transcription by each compound at a concentration of 100 μM.

MDA-MB-468 = MDA-MB-468 cell growth inhibitory activity; format: cell-based; details: Homo sapiens; compound at 20 μM; MDA-MB-468, 72 hours
Experimental: MDA-MB-468 diluted with phenol red-free DMEM/F-12 (GIBCO; 10% FBS, 20 units/ml penicillin/streptomycin) was inoculated at a concentration of 2000 cells/well to a 96-well plate (Greiner Bio-One) and cultured overnight at 37° C. in the presence of 5% CO2. Then, a test sample solution (containing 2 (v/v)% DMSO) adjusted to 10 μM was added thereto at a concentration of 10 μL/well and contacted with the cells at 37° C. for 72 hours in the presence of 5% CO2. Each well was washed three times with a medium. Then, after addition of 100 μL/well of a medium and 20 μL/well of CellTiter 96 AQueous, One Solution Reagent (Promega Corp.), the cells were incubated at 37° C. for 2 hours in the presence of 5% CO2. Absorbance at 495 nm was measured using Multiplate reader (Molecular Devices, Inc.), and the rate of inhibition of cell growth was calculated according to the following formula: Rate of inhibition of cell growth (%)=100−100×(Abschem−bkgd)/(AbsDMSO−bkgd) • Abschem: absorbance obtained by the addition of a test sample • AbsDMSO: absorbance obtained by the addition of only a solvent for test sample dissolution • bkgd: absorbance obtained by the addition of CellTiter 96 AQueous One Solution Reagent to a medium for cell culture
The test results were indicated in the rate of inhibition of cell growth by each compound at a concentration of 20 μM.

[2] = test system: Human lymphoma SCC-3 cells; assay: SCC-3 cell growth inhibition test (MTT method); format: cell-based; details: 72-hour culture
Experimental: Human lymphoma SCC-3 cells purchased from Japan Health Sciences Foundation were cultured for […] at a density of 5000 cells/well in a 96-well plate with RPMI1640 (Sigma-Aldrich Corp.) containing 10% fetal bovine serum (FBS; GIBCO) as a culture medium.
Simultaneously with cell inoculation, each test compound diluted to various concentrations with an RPMI medium was added to each well. After 72-hour culture, cell growth inhibitory activity was determined by the MTT method (J. Immunol. Methods, 1993, 65, 581-593) using a microplate reader (NJ-2300, BioTek Instruments, Inc.).
The test results were indicated in a concentration (IC50) at which 50% cell growth was inhibited.

CC(C)(C)c1ccc(-c2cccc(C(=O)Nc3nnc(-c4ccco4)o3)c2)cc1 [Compound Ia-14, 4′-tert-Butyl-N-[5-(2-furyl)-1,3,4-oxadiazol-2-yl]-3-biphenylcarboxamide]
T/C (%) ([1]; day 11 after administration): 57%
inhibition at 100 µM (STAT3): 57%

CCCCOC(=O)c1ccc(-c2cccc(C(=O)Nc3nnc(-c4ccco4)o3)c2)cc1 [Compound Ia-23, 4′-n-Butoxycarbonyl-N-[5-(2-furyl)-1,3,4-oxadiazol-2-yl]-3-biphenylcarboxamide]
T/C (%) ([1]; day 6 after administration): 55%

O=C(Nc1nnc(-c2ccco2)o1)c1cc(-c2ccccc2)nc2nc(N3CCCCC3)sc12 [Compound Ib-1, N-[5-(2-Furyl)-1,3,4-oxadiazol-2-yl]-5-phenyl-2-piperidino-7-thiazolo[4,5-b]pyridinecarboxamide]
inhibition at 20 µM (MDA-MB-468): 96%
T/C (%) ([1]; day 18 after administration): 52%
inhibition at 100 µM (STAT3): > 100%
IC50 [2]: 520 nM
